These results are taken from BindingDB's records for doi:10.1016/0196-9781(94)90118-x (Tulane University, 1994).

As a reminder, the Ki is a measure of affinity in units of concentration, obtained from inhibition or displacement. High values mean a looser hold on the target, low ones a stronger hold on the target.

The target in assay [1] is T1, Somatostatin receptor type 5 (Rattus norvegicus, UniProt P30938).
T1 sequence (P30938 whole entry): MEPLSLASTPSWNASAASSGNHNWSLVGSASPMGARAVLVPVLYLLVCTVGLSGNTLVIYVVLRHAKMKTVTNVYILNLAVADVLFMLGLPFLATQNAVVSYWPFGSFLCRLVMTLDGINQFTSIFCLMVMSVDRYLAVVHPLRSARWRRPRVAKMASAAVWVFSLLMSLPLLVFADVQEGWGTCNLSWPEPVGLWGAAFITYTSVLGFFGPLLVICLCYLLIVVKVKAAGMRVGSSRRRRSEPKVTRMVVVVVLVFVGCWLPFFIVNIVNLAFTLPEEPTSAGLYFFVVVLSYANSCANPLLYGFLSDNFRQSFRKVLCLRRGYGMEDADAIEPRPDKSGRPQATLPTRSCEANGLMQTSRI

Assay [2] addresses Somatostatin receptor type 2 (Rattus norvegicus, UniProt P30680).
Assay [3] has as its target Somatostatin receptor type 3 (Rattus norvegicus, UniProt P30936).
The target in assay [4] is Somatostatin receptor type 1 (Rattus norvegicus, UniProt P28646).
The target of assay [5] is Somatostatin receptor type 4 (Rattus norvegicus, UniProt P30937).

Positions of bridges follow the written chain, without caps; N, C: chain ends. Non-standard residues stand in square brackets, D forms with d. Residues, ends and D or L forms follow the SMILES beside them. ξ: configuration not given here. 2Nal = N[C@@H](Cc1ccc2ccccc2c1)C(=O)O; d2Nal = N[C@H](Cc1ccc2ccccc2c1)C(=O)O; ξPhg = NC(C(=O)O)c1ccccc1; Abu = CC[C@H](N)C(=O)O

Somatostatin receptor type 3, sequence (P30936 whole entry): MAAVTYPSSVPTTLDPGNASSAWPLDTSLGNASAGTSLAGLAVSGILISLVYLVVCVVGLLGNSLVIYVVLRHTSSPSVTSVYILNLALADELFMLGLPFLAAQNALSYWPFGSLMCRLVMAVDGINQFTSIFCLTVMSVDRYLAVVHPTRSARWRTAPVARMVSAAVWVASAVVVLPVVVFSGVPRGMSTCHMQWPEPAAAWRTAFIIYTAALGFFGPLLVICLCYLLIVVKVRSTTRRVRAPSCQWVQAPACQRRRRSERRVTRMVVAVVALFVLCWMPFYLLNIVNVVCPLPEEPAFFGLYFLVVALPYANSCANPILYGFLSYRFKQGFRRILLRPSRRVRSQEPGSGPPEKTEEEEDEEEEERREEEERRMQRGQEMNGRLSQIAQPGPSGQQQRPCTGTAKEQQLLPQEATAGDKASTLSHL
Somatostatin receptor type 1, sequence (P28646 whole entry): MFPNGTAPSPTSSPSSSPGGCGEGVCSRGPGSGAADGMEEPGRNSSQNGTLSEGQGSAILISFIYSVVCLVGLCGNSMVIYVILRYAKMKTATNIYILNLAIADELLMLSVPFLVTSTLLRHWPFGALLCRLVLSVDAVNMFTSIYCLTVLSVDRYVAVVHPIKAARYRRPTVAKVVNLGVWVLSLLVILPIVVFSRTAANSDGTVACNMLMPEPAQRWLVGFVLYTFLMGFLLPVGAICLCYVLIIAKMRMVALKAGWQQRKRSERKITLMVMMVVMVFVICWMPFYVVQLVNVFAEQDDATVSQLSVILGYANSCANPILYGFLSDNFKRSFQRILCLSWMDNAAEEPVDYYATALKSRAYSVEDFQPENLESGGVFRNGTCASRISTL
Somatostatin receptor type 2, sequence (P30680 whole entry): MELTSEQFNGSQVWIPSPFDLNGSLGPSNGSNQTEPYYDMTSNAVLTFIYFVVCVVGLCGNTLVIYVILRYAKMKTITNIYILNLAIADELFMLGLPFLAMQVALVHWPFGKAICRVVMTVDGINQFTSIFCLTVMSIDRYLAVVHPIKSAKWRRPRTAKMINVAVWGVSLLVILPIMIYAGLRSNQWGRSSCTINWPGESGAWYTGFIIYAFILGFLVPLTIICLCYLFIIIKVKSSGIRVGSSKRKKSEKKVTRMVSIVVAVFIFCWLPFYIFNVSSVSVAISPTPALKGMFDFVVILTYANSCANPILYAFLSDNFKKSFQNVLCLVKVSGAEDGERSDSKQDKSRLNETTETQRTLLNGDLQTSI
Somatostatin receptor type 4, sequence (P30937 whole entry): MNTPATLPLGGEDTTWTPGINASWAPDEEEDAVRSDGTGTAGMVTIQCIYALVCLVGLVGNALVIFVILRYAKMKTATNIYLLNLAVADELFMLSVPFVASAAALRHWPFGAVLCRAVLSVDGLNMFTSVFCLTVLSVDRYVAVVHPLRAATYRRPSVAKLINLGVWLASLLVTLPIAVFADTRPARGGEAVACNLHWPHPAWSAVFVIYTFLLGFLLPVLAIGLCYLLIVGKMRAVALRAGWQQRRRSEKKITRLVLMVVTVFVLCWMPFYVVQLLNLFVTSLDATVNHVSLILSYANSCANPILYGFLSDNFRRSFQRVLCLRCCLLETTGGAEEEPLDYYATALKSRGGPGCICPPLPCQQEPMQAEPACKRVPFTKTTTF

In turn, `CC(C)[C@H](NC(=O)[C@H](CCCCN)NC(=O)[C@H](Cc1c[nH]c2ccccc12)NC(=O)[C@H](Cc1ccc(O)cc1)NC(=O)[C@@H](N)CS)C(=O)N[C@@H](CS)C(=O)N[C@H](C(N)=O)[C@@H](C)O` [D-Nal-Cys-Tyr-D-Trp-Lys-Val-Cys-Thr-NH2] (H-CYWKVCT-NH2) displayed a Ki in assay [1] of 1000 nM.
Take `CC(C)[C@@H]1NC(=O)[C@H](CCCCN)NC(=O)[C@@H](Cc2c[nH]c3ccccc23)NC(=O)[C@H](Cc2ccc(O)cc2)NC(=O)[C@@H](NC(=O)[C@H](N)Cc2ccc3ccccc3c2)CSSC[C@@H](C(=O)N[C@H](C(N)=O)[C@@H](C)O)NC1=O` [D-Nal-Cys-Tyr-D-Trp-Lys-Val-Cys-Thr-NH2]: the inhibition constant Ki in assay [2] is 1.6 nM; in assay [3], 4.9 nM; in assay [4], over 10000 nM.
As to `C[C@@H](O)[C@H](NC(=O)[C@H](Cc1ccccc1)NC(=O)[C@@H](NC(=O)[C@H](CCCCN)NC(=O)[C@@H](Cc1c[nH]c2ccccc12)NC(=O)[C@H](Cc1ccccc1)NC(=O)[C@H](Cc1ccccc1)NC(=O)[C@H](N)Cc1ccccc1)[C@@H](C)O)C(N)=O` [CAS_133073-82-2] (H-[dF]FF[dW]KTFT-NH2), the values for the Ki in assay [1], in assay [2] and in assay [3] were 18 nM, 32 nM and 0.42 nM, respectively.
With `CC[C@@H]1NC(=O)[C@H](CCCCN)NC(=O)[C@@H](Cc2c[nH]c3ccccc23)NC(=O)[C@H](Cc2ccc(O)cc2)NC(=O)[C@@H](NC(=O)[C@H](N)Cc2ccccc2)CSSC[C@@H](C(=O)N[C@@H](Cc2ccc3ccccc3c2)C(N)=O)NC1=O` [D-Phe-Cys-Tyr-D-Trp-Lys-Abu-Cys-Nal-NH] (H-[dF]CY[dW]K[Abu]C[2Nal]-NH2; disulfide 2-7), the inhibition constant (Ki) in assay [2] was 0.01 nM; in assay [3], 11 nM; in assay [4], over 10000 nM.
`CC(C)[C@H](NC(=O)[C@H](CCCCN)NC(=O)[C@H](Cc1c[nH]c2ccccc12)NC(=O)[C@H](Cc1ccc(O)cc1)NC(=O)[C@H](Cc1ccccc1)NC(=O)C(N)c1ccccc1)C(=O)N[C@@H](Cc1ccccc1)C(=O)N[C@H](C(N)=O)[C@@H](C)O` (stereo partly drawn) [D-Phe-Phe-Tyr-D-Trp-Lys-Val-Phe-Thr-NH2] (H-[ξPhg]FYWKVFT-NH2) showed a Ki in assay [1] of 77 nM.
`CC(C)[C@H](NC(=O)[C@H](CCCCN)NC(=O)[C@@H](Cc1c[nH]c2ccccc12)NC(=O)[C@H](Cc1ccc(O)cc1)NC(=O)[C@H](Cc1ccccc1)NC(=O)[C@H](N)Cc1ccccc1)C(=O)N[C@@H](Cc1ccccc1)C(=O)N[C@H](C(N)=O)[C@@H](C)O` [D-Phe-Phe-Tyr-D-Trp-Lys-Val-Phe-Thr-NH2] (H-[dF]FY[dW]KVFT-NH2): the inhibition constant (Ki) in assay [5] is 1.2 nM; in assay [2], 46 nM; in assay [3], 0.03 nM; in assay [4], over 10000 nM.
As to `CC(C)[C@H](NC(=O)[C@H](CCCCN)NC(=O)[C@@H](Cc1c[nH]c2ccccc12)NC(=O)[C@H](Cc1ccc(O)cc1)NC(=O)[C@H](Cc1ccccc1)NC(=O)[C@H](N)Cc1ccccc1)C(=O)N[C@@H](Cc1ccccc1)C(=O)N[C@H](Cc1ccc2ccccc2c1)C(N)=O` [CAS_150155-61-6] (H-[dF]FY[dW]KVF[d2Nal]-NH2), the inhibition constant Ki in assay [5] was 43 nM; in assay [1], 158 nM; in assay [2], 1000 nM; in assay [3], 0.02 nM; in assay [4], over 10000 nM.
